According to the supplement of paper PMC11616607:

What was measured:
Experiment in all cases: drug sensitivity score (DSS) from 5-point dose-response viability curve (DSS (area-under-curve based score)); higher = more sensitive (stronger growth inhibition or killing); extreme values may be limits of the assay
Conditions in all cases: exposure time: 72 h; concentration range: 5 concentrations over 10,000-fold range
[1] = tested on: CAOV3
Summary of the method: (§1)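 Each cell line and drug received a drug sensitivity score from Breeze software, where higher means more sensitive. Zero stands for no response. Scores came from CellTiter-Glo viability readings of ovarian cancer and normal ovarian cells, 1,500 per well in 384-well plates, after 3 days at 37°C, 5% CO2 with drugs at five concentrations over a 10,000-fold range.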

[2] = tested on: HOSE1C
Summary of the method: as §1

[3] = tested on: HOSE2C
Summary of the method: as §1

[4] = tested on: Ovsaho
Summary of the method: as §1

[5] = tested on: OVCAR5
Summary of the method: as §1

[6] = tested on: OVCAR8
Summary of the method: as §1

[7] = tested on: OV90
Summary of the method: as §1

[8] = tested on: OVCAR4
Summary of the method: as §1

[9] = tested on: Kuramochi
Summary of the method: as §1

[10] = tested on: JHOS2
Summary of the method: as §1

[11] = tested on: COV318
Summary of the method: as §1

[12] = tested on: COV362
Summary of the method: as §1

Compound | drug sensitivity score [1] | drug sensitivity score [2] | drug sensitivity score [3] | drug sensitivity score [4] | drug sensitivity score [5] | drug sensitivity score [6] | drug sensitivity score [7] | drug sensitivity score [8] | drug sensitivity score [9] | drug sensitivity score [10] | drug sensitivity score [11] | drug sensitivity score [12]
O=C(Nc1cnn2ccc(N3CCC[C@@H]3c3cc(F)ccc3F)nc12)N1CC[C@H](O)C1 [Larotrectinib] | 0 | 0 | 0 | 0 | 0 | 0 | 0 | 0 | 0 | 0 | 0 | 0
Oc1ccc2c(c1)CC[C@H](c1ccccc1)[C@@H]2c1ccc(OCCN2CCCC2)cc1 [Lasofoxifene] | 0 | 0 | 0 | 0 | 0 | 0 | 0 | 0 | 0.3 | 0 | 0 | 0
Nc1cccc2c1CN(C1CCC(=O)NC1=O)C2=O (stereo not given) [Lenalidomide] | 0 | 0 | 0 | 0 | 0 | 0 | 0 | 0 | 0.2 | 0.1 | 0 | 0
COc1cc2nccc(Oc3ccc(NC(=O)NC4CC4)c(Cl)c3)c2cc1C(N)=O [Lenvatinib] | 0 | 0.4 | 2.9 | 0.1 | 0 | 0 | 0.1 | 0.6 | 0 | 0.1 | 0.9 | 0
N#Cc1ccc(C(c2ccc(C#N)cc2)n2cncn2)cc1 [Letrozole] | 0 | 0 | 0 | 0 | 0 | 0 | 0 | 0 | 0 | 0 | 0 | 0
Cc1ccc(F)c(NC(=O)Nc2ccc(-c3cccc4[nH]nc(N)c34)cc2)c1 [Linifanib] | 0 | 0 | 0 | 0 | 0 | 0 | 0 | 0 | 0 | 0 | 0.2 | 0
C[C@]1(O)C[C@@H](c2nc(-c3ccc4ccc(-c5ccccc5)nc4c3)c3c(N)nccn32)C1 [Linsitinib] | 1.4 | 0.7 | 2 | 0 | 2.7 | 0.3 | 0.9 | 0 | 0 | 0 | 0 | 0
CCNCCS(=O)(=O)NC[C@@]1(c2ccccc2)SC(NC(=O)C(C)(C)C)=NN1C(=O)C(C)(C)C [Litronesib] | 23.2 | 25 | 16.7 | 7.8 | 19 | 18.4 | 11.6 | 4.9 | 7.5 | 6.1 | 3.4 | 1.1
Nc1nc(OCc2cc(Br)cs2)c2[nH]cnc2n1 [Lomeguatrib] | 0 | 0 | 0 | 2.5 | 0 | 0 | 0 | 0 | 0.8 | 0 | 0.4 | 0
NC(=O)N1CCC(CC(=O)N2CCC([C@H]3c4ncc(Br)cc4CCc4cc(Cl)cc(Br)c43)CC2)CC1 [Lonafarnib] | 8.9 | 8 | 8.9 | 9.8 | 9.1 | 9.4 | 15.8 | 9.1 | 11 | 8.4 | 9.2 | 1.9
Cc1c(F)cc(C(=O)NC2CC2)cc1-c1ccc(C(=O)NCC(C)(C)C)cn1 [Losmapimod] | 0 | 0 | 0 | 0.7 | 0.9 | 0.2 | 1.5 | 0 | 2 | 0 | 0.4 | 0
CC[C@H](C)C(=O)O[C@H]1C[C@@H](C)C=C2C=C[C@H](C)[C@H](CC[C@@H]3C[C@@H](O)CC(=O)O3)[C@H]21 [Lovastatin] | 0 | 7.5 | 7.8 | 0.7 | 0.8 | 1.7 | 1.3 | 0.2 | 0.3 | 0 | 0 | 0.1
CNC(=O)c1cccc2cc(Oc3ccnc4cc(OCC5(N)CC5)c(OC)cc34)ccc12 [Lucitanib] | 0 | 1.5 | 5.9 | 0.8 | 1.6 | 2.3 | 1.1 | 2.4 | 0.1 | 0.4 | 2.3 | 0
CCNC(=O)c1noc(-c2cc(C(C)C)c(O)cc2O)c1-c1ccc(CN2CCOCC2)cc1 [Luminespib] | 16.8 | 23.1 | 23 | 8.7 | 15.2 | 18.8 | 17.2 | 9.8 | 14.4 | 18.8 | 11.6 | 13.8
O=C(O)CC[C@H]1CC[C@@](c2cc(F)ccc2F)(S(=O)(=O)c2ccc(Cl)cc2)CC1 [MK-0752] | 0 | 0 | 0 | 0 | 0.9 | 0 | 0.2 | 0 | 0 | 0 | 0 | 0
